Active and inactive are the calls of the source. The rule behind the calls is not given here.
Legend:
[1] = test system: Pomacea canaliculata; experiment: Molluscicidal activity against Pomacea canaliculata under laboratory conditions assessed as mortality at 33 ppm after 24 hr; type: functional
[2] = Toxicity against Oreochromis sp. under laboratory conditions assessed as mortality at 5 ppm measured after 96 hr; type: organism-based; conditions: in vivo
[3] = Toxicity against Carassius auratus under laboratory conditions assessed as mortality at 54 ppm measured after 48 hr; type: organism-based; conditions: in vivo
[4] = test system: Pomacea canaliculata; experiment: Molluscicidal activity against Pomacea canaliculata under laboratory conditions assessed as mortality at 10 ppm after 24 hr; type: functional
[5] = Toxicity against Oreochromis sp. under laboratory conditions assessed as mortality at 10 ppm measured after 96 hr; type: organism-based; conditions: in vivo
[6] = Toxicity against Carassius auratus under laboratory conditions assessed as mortality at 33 ppm measured after 24 hr; type: organism-based; conditions: in vivo
[7] = Toxicity against Oreochromis sp. under laboratory conditions assessed as mortality at 33 ppm measured after 24 hr; type: organism-based; conditions: in vivo
[8] = Toxicity against Carassius auratus under laboratory conditions assessed as mortality at 40 ppm measured after 96 hr; type: organism-based; conditions: in vivo
[9] = Toxicity against Carassius auratus under laboratory conditions assessed as mortality at 17 ppm measured after 48 hr; type: organism-based; conditions: in vivo
[10] = test system: Pomacea canaliculata; experiment: Molluscicidal activity against Pomacea canaliculata infested rice field assessed as mortality at 19 to 27 ppm after 24 hr; type: functional, organism-based
[11] = test system: Pomacea canaliculata; experiment: Molluscicidal activity against Pomacea canaliculata under laboratory conditions assessed as mortality at 40 ppm after 24 hr; type: functional
[12] = Toxicity against Carassius auratus under laboratory conditions assessed as mortality at 10 ppm measured after 24 hr; type: organism-based; conditions: in vivo
[13] = Toxicity against Carassius auratus under laboratory conditions assessed as mortality at 10 ppm measured after 96 hr; type: organism-based; conditions: in vivo
[14] = Toxicity against Carassius auratus under laboratory conditions assessed as mortality at 23 ppm measured after 96 hr; type: organism-based; conditions: in vivo
[15] = test system: Pomacea canaliculata; experiment: Molluscicidal activity against Pomacea canaliculata under laboratory conditions assessed as mortality at 17 ppm after 24 hr; type: functional
[16] = Toxicity against Oreochromis sp. under laboratory conditions assessed as mortality at 5 ppm measured after 24 hr; type: organism-based; conditions: in vivo
[17] = Toxicity against Carassius auratus under laboratory conditions assessed as mortality at 40 ppm measured after 48 hr; type: organism-based; conditions: in vivo
[18] = Toxicity against Oreochromis sp. under laboratory conditions assessed as mortality at 54 ppm measured after 96 hr; type: organism-based; conditions: in vivo
[19] = Toxicity against Oreochromis sp. under laboratory conditions assessed as mortality at 33 ppm measured after 96 hr; type: organism-based; conditions: in vivo
[20] = Toxicity against Carassius auratus under laboratory conditions assessed as mortality at 54 ppm measured after 96 hr; type: organism-based; conditions: in vivo
[21] = Toxicity against Carassius auratus under laboratory conditions assessed as mortality at 5 ppm measured after 96 hr; type: organism-based; conditions: in vivo
[22] = Toxicity against Oreochromis sp. under laboratory conditions assessed as mortality at 40 ppm measured after 96 hr; type: organism-based; conditions: in vivo
[23] = Toxicity against Oreochromis sp. under laboratory conditions assessed as mortality at 23 ppm measured after 24 hr; type: organism-based; conditions: in vivo
[24] = Toxicity against Carassius auratus under laboratory conditions assessed as mortality at 17 ppm measured after 24 hr; type: organism-based; conditions: in vivo
[25] = Toxicity against Oreochromis sp. under laboratory conditions assessed as mortality at 17 ppm measured after 24 hr; type: organism-based; conditions: in vivo
[26] = Toxicity against Oreochromis sp. under laboratory conditions assessed as mortality at 54 ppm measured after 24 hr; type: organism-based; conditions: in vivo
[27] = Toxicity against Carassius auratus under laboratory conditions assessed as mortality at 40 ppm measured after 24 hr; type: organism-based; conditions: in vivo
[28] = Toxicity against Carassius auratus under laboratory conditions assessed as mortality at 23 ppm measured after 24 hr; type: organism-based; conditions: in vivo
[29] = Toxicity against Carassius auratus under laboratory conditions assessed as mortality at 17 ppm measured after 96 hr; type: organism-based; conditions: in vivo
[30] = test system: Pomacea canaliculata; experiment: Molluscicidal activity against Pomacea canaliculata under laboratory conditions assessed as mortality at 23 ppm after 24 hr; type: functional
[31] = Toxicity against Carassius auratus under laboratory conditions assessed as mortality at 23 ppm measured after 48 hr; type: organism-based; conditions: in vivo
[32] = Toxicity against Carassius auratus under laboratory conditions assessed as mortality at 33 ppm measured after 96 hr; type: organism-based; conditions: in vivo
[33] = Toxicity against Oreochromis sp. under laboratory conditions assessed as mortality at 23 ppm measured after 96 hr; type: organism-based; conditions: in vivo
[34] = Toxicity against Carassius auratus under laboratory conditions assessed as mortality at 54 ppm measured after 24 hr; type: organism-based; conditions: in vivo
[35] = Toxicity against Oreochromis sp. under laboratory conditions assessed as mortality at 10 ppm measured after 24 hr; type: organism-based; conditions: in vivo
[36] = Toxicity against Carassius auratus under laboratory conditions assessed as mortality at 33 ppm measured after 48 hr; type: organism-based; conditions: in vivo
[37] = Toxicity against Oreochromis sp. under laboratory conditions assessed as mortality at 17 ppm measured after 96 hr; type: organism-based; conditions: in vivo
[38] = test system: Pomacea canaliculata; experiment: Molluscicidal activity against Pomacea canaliculata under laboratory conditions assessed as mortality at 54 ppm after 24 hr; type: functional
[39] = Toxicity against Carassius auratus under laboratory conditions assessed as mortality at 10 ppm measured after 48 hr; type: organism-based; conditions: in vivo
[40] = Toxicity against Carassius auratus under laboratory conditions assessed as mortality at 5 ppm measured after 24 hr; type: organism-based; conditions: in vivo
[41] = Toxicity against Carassius auratus under laboratory conditions assessed as mortality at 5 ppm measured after 48 hr; type: organism-based; conditions: in vivo
[42] = test system: Pomacea canaliculata; experiment: Molluscicidal activity against Pomacea canaliculata under laboratory conditions assessed as mortality at 5 ppm after 24 hr; type: functional
[43] = Toxicity against Oreochromis sp. under laboratory conditions assessed as mortality at 40 ppm measured after 24 hr; type: organism-based; conditions: in vivo

Compound: CC1(C)CC[C@]2(C(=O)O)CC[C@]3(C)C(=CC[C@@H]4[C@@]5(C)CC[C@H](O)[C@@](C)(CO)[C@@H]5CC[C@]43C)[C@@H]2C1 [HEDERAGENIN]
- mortality at 33 ppm [1]: 100%
- mortality at 96 h, 5 ppm [2]: 0%
- mortality at 48 h, 54 ppm [3]: 0%
- mortality at 10 ppm [4]: 50%
- mortality at 96 h, 10 ppm [5]: 0%
- mortality at 24 h, 33 ppm [6]: 0%
- mortality at 24 h, 33 ppm [7]: 0%
- mortality at 96 h, 40 ppm [8]: 0%
- mortality at 48 h, 17 ppm [9]: 0%
- mortality [10]: Active
- mortality at 40 ppm [11]: 100%
- mortality at 24 h, 10 ppm [12]: 0%
- mortality at 96 h, 10 ppm [13]: 0%
- mortality at 96 h, 23 ppm [14]: 0%
- mortality at 17 ppm [15]: 75%
- mortality at 24 h, 5 ppm [16]: 0%
- mortality at 48 h, 40 ppm [17]: 0%
- mortality at 96 h, 54 ppm [18]: 0%
- mortality at 96 h, 33 ppm [19]: 0%
- mortality at 96 h, 54 ppm [20]: 0%
- mortality at 96 h, 5 ppm [21]: 0%
- mortality at 96 h, 40 ppm [22]: 0%
- mortality at 24 h, 23 ppm [23]: 0%
- mortality at 24 h, 17 ppm [24]: 0%
- mortality at 24 h, 17 ppm [25]: 0%
- mortality at 24 h, 54 ppm [26]: 0%
- mortality at 24 h, 40 ppm [27]: 0%
- mortality at 24 h, 23 ppm [28]: 0%
- mortality at 96 h, 17 ppm [29]: 0%
- mortality at 23 ppm [30]: 75%
- mortality at 48 h, 23 ppm [31]: 0%
- mortality at 96 h, 33 ppm [32]: 0%
- mortality at 96 h, 23 ppm [33]: 0%
- mortality at 24 h, 54 ppm [34]: 0%
- mortality at 24 h, 10 ppm [35]: 0%
- mortality at 48 h, 33 ppm [36]: 0%
- mortality at 96 h, 17 ppm [37]: 0%
- mortality at 54 ppm [38]: 100%
- mortality at 48 h, 10 ppm [39]: 0%
- mortality at 24 h, 5 ppm [40]: 0%
- mortality at 48 h, 5 ppm [41]: 0%
- mortality at 5 ppm [42]: 0%
- mortality at 24 h, 40 ppm [43]: 0%

Compound: CC1(C)CC[C@]2(C(=O)O)CC[C@]3(C)C(=CC[C@@H]4[C@@]5(C)CC[C@H](O)C(C)(C)[C@@H]5CC[C@]43C)[C@@H]2C1 [OLEANOLIC_ACID]
- mortality at 33 ppm [1]: 100%
- mortality at 96 h, 5 ppm [2]: 0%
- mortality at 48 h, 54 ppm [3]: 0%
- mortality at 10 ppm [4]: 50%
- mortality at 96 h, 10 ppm [5]: 0%
- mortality at 24 h, 33 ppm [6]: 0%
- mortality at 24 h, 33 ppm [7]: 0%
- mortality at 96 h, 40 ppm [8]: 0%
- mortality at 48 h, 17 ppm [9]: 0%
- mortality [10]: Active
- mortality at 40 ppm [11]: 100%
- mortality at 24 h, 10 ppm [12]: 0%
- mortality at 96 h, 10 ppm [13]: 0%
- mortality at 96 h, 23 ppm [14]: 0%
- mortality at 17 ppm [15]: 75%
- mortality at 24 h, 5 ppm [16]: 0%
- mortality at 48 h, 40 ppm [17]: 0%
- mortality at 96 h, 54 ppm [18]: 0%
- mortality at 96 h, 33 ppm [19]: 0%
- mortality at 96 h, 54 ppm [20]: 0%
- mortality at 96 h, 5 ppm [21]: 0%
- mortality at 96 h, 40 ppm [22]: 0%
- mortality at 24 h, 23 ppm [23]: 0%
- mortality at 24 h, 17 ppm [24]: 0%
- mortality at 24 h, 17 ppm [25]: 0%
- mortality at 24 h, 54 ppm [26]: 0%
- mortality at 24 h, 40 ppm [27]: 0%
- mortality at 24 h, 23 ppm [28]: 0%
- mortality at 96 h, 17 ppm [29]: 0%
- mortality at 23 ppm [30]: 75%
- mortality at 48 h, 23 ppm [31]: 0%
- mortality at 96 h, 33 ppm [32]: 0%
- mortality at 96 h, 23 ppm [33]: 0%
- mortality at 24 h, 54 ppm [34]: 0%
- mortality at 24 h, 10 ppm [35]: 0%
- mortality at 48 h, 33 ppm [36]: 0%
- mortality at 96 h, 17 ppm [37]: 0%
- mortality at 54 ppm [38]: 100%
- mortality at 48 h, 10 ppm [39]: 0%
- mortality at 24 h, 5 ppm [40]: 0%
- mortality at 48 h, 5 ppm [41]: 0%
- mortality at 5 ppm [42]: 0%
- mortality at 24 h, 40 ppm [43]: 0%

Reference: ChEMBL document CHEMBL3045910, “Novel molluscicide against Pomacea canaliculata based on quinoa (Chenopodium quinoa) saponins” (Crop Prot, 2008)
